Reference: US20160237059A1, “HETEROCYCLIC SUBSTITUTED TRIFLUOROMETHYL PYRIMIDINONES AND THEIR USE” (BAYER PHARMA AKTIENGESELLSCHAFT, priority 2013, published 2016)

Assays:
[1] = molecular target: T1, human CCR2 (Homo sapiens, UniProt P41597); test: Functional Ca2+ release test (B-1); type: cell-based; conditions: Chem-1 cell line transfected with human CCR2; 50% inhibition of the MCP-1 effect, MCP-1 at EC50 (about 5 nM); in some cases means of several determinations
T1 construct: host or cells: Chem-1 cell line
T1 sequence (P41597 1-360 isoform P41597-2): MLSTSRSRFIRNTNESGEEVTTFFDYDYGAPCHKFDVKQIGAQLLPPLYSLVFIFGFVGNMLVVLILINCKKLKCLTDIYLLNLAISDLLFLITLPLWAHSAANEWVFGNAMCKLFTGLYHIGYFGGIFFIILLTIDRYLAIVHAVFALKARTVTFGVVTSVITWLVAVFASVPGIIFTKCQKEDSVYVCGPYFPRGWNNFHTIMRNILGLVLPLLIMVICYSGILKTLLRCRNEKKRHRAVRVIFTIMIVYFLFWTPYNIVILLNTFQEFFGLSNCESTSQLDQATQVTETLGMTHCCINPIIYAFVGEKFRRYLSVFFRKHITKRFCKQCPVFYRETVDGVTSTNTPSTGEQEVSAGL
Procedure, shortened: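 Chem-1 cells expressing human CCR2, loaded with Fluo-4 for 60 min at 37° C, were preincubated 10 min with compound (10-point, 1:3.16 dilutions), then stimulated with MCP-1 at its predetermined EC50 (about 5 nM). Ca2+ release was monitored for 120 s. IC50 came from a 4-parameter Hill fit.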

[2] = molecular target: T2, murine CCR2 (Mus musculus, UniProt P51683); test: Functional β-arrestin recruiting test with murine MCP-1 (B-2b); type: cell-based; conditions: U2OS β-arrestin cell line transfected with murine CCR2; agonist murine MCP-1; in some cases means of several determinations
T2 construct: host or cells: U2OS β-arrestin cell line
Procedure, shortened: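 In a PathHunter β-galactosidase complementation assay, U2OS cells expressing murine CCR2 were preincubated 10 min with compound (10-point, 1:3.16 dilutions), then challenged with murine MCP-1 at its predetermined EC50 for 90 min at 37 °C. Luminescence was read after 60 min, and IC50 was fitted with a 4-parameter Hill function.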

T2 sequence (P51683 whole entry): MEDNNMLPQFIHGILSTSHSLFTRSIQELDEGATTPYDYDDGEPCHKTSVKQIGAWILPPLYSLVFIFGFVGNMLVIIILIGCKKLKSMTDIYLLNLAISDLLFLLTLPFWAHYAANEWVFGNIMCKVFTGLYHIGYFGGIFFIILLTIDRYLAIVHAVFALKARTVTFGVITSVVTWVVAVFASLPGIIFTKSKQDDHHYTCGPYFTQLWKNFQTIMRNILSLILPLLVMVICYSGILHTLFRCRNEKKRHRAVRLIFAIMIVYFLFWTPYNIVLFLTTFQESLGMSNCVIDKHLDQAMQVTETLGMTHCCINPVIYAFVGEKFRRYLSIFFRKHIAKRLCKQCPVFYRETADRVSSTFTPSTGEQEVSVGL

| IC50 [1] | IC50 [2] | Compound |
| --- | --- | --- |
| 12 nM | 1990 nM | Cn1nc(-c2nc(C(F)(F)F)c(Oc3ccc(Cl)c(C(F)(F)F)c3)c(=O)[nH]2)c2cccnc21 [Example 206] |
| 0.8 nM | 221 nM | COc1cc(C)nc(-c2nc(C(F)(F)F)c(Oc3ccc(Cl)c(C(F)(F)F)c3)c(=O)[nH]2)n1 [Example 184, 5-[4-chloro-3-(trifluoromethyl)phenoxy]-4′-methoxy-6′-methyl-6-(trifluoromethyl)-2,2′-bipyrimidin-4(3H)-one] |
| 2.9 nM | 145 nM | COc1cc(C)nc(-c2nc(C(F)(F)F)c(Oc3ccc(Cl)c(Cl)c3)c(=O)[nH]2)n1 [Example 183, 5-(3,4-dichlorophenoxy)-4′-methoxy-6′-methyl-6-(trifluoromethyl)-2,2′-bipyrimidin-4(3H)-one] |
| 12 nM | 257 nM | C[S+]([O-])c1cccnc1-c1nc(C(F)(F)F)c(Oc2ccc(Cl)c(C(F)(F)F)c2)c(=O)[nH]1 (stereo not drawn) [Example 265] |
| 81 nM | 4490 nM | COc1ccc2c(-c3nc(C(F)(F)F)c(Oc4ccc(Cl)c(C(F)(F)F)c4)c(=O)[nH]3)noc2c1 [Example 207] |
| 0.5 nM | 107 nM | CCn1ccc(-c2nc(C(F)(F)F)c(Oc3ccc(Cl)c(C(F)(F)F)c3)c(=O)[nH]2)n1 [Example 240] |
| 0.9 nM | 39 nM | COc1csnc1-c1nc(C(F)(F)F)c(Oc2ccc(Cl)c(C(F)(F)F)c2)c(=O)[nH]1 [Example 238] |
| 6.5 nM | 551 nM | COCc1cc(-c2nc(C(F)(F)F)c(Oc3ccc(Cl)c(Cl)c3)c(=O)[nH]2)no1 [Example 222] |
| 0.1 nM | 249 nM | Cc1cc(-c2nc(C(F)(F)F)c(Oc3ccc(Cl)c(Cl)c3)c(=O)[nH]2)no1 [Example 231] |
| 0.1 nM | 21 nM | Cc1cc(Oc2c(C(F)(F)F)nc(-c3cc[nH]n3)[nH]c2=O)ccc1Cl [Example 223] |
| 113 nM | 6940 nM | O=c1[nH]c(-n2ccc(C(F)(F)F)n2)nc(C(F)(F)F)c1Oc1ccc(Cl)c(Cl)c1 [Example 252] |
| 0.7 nM | 84 nM | Cc1cc(-c2nc(C(F)(F)F)c(Oc3ccc(Cl)c(C(F)(F)F)c3)c(=O)[nH]2)nn1C [Example 170, 5-[4-chloro-3-(trifluoromethyl)phenoxy]-2-(1,5-dimethyl-1H-pyrazol-3-yl)-6-(trifluoromethyl)pyrimidin-4(3H)-one] |
| 11 nM | 758 nM | CSc1ccnc(-c2nc(C(F)(F)F)c(Oc3ccc(Cl)c(Cl)c3)c(=O)[nH]2)c1 [Example 192, 5-(3,4-dichlorophenoxy)-2-[4-(methylsulphanyl)pyridin-2-yl]-6-(trifluoromethyl)pyrimidin-4(3H)-one] |
| 1.3 nM | 83 nM | Cc1cc(Oc2c(C(F)(F)F)nc(-c3ncccc3Cl)[nH]c2=O)ccc1Cl [Example 197, 5-(4-chloro-3-methylphenoxy)-2-(3-chloropyridin-2-yl)-6-(trifluoromethyl)pyrimidin-4(3H)-one] |
| 6.4 nM | 164 nM | O=c1[nH]c(-c2nsc(Cl)c2Cl)nc(C(F)(F)F)c1Oc1ccc(Cl)c(Cl)c1 [Example 227] |
| 7.2 nM | 1040 nM | O=c1[nH]c(-c2cc(C3CC3)on2)nc(C(F)(F)F)c1Oc1ccc(Cl)c(Cl)c1 [Example 219] |
| 8.8 nM | 277 nM | CNc1cccc(-c2nc(C(F)(F)F)c(Oc3ccc(Cl)c(Cl)c3)c(=O)[nH]2)n1 [Example 166, 5-(3,4-dichlorophenoxy)-2-[6-(methylamino)pyridin-2-yl]-6-(trifluoromethyl)pyrimidin-4(3H)-one] |
| 0.9 nM | 254 nM | COc1cnn(-c2nc(C(F)(F)F)c(Oc3ccc(Cl)c(Cl)c3)c(=O)[nH]2)c1 [Example 249] |
| 624 nM | 3530 nM | O=c1[nH]c(C2CCNCC2)nc(C(F)(F)F)c1Oc1ccc(Cl)c(C(F)(F)F)c1 [Example 259, 5-[4-chloro-3-(trifluoromethyl)phenoxy]-2-(piperidin-4-yl)-6-(trifluoromethyl)pyrimidin-4(3H)-one] |

More lines, now with the values behind:

| Compound | IC50 [1] | IC50 [2] |
| --- | --- | --- |
| Nc1ccc(-c2nc(C(F)(F)F)c(Oc3ccc(Cl)c(C(F)(F)F)c3)c(=O)[nH]2)nn1 [Example 153, 2-(6-aminopyridazin-3-yl)-5-[4-chloro-3-(trifluoromethyl)phenoxy]-6-(trifluoromethyl)pyrimidin-4(3H)-one] | 0.7 nM | 87 nM |
| COc1cccc(-c2nc(C(F)(F)F)c(Oc3ccc(Cl)c(Cl)c3)c(=O)[nH]2)n1 [Example 144, 5-(3,4-dichlorophenoxy)-2-(6-methoxypyridin-2-yl)-6-(trifluoromethyl)pyrimidin-4(3H)-one] | 17 nM | 759 nM |
| COc1cc(OC)nc(-c2nc(C(F)(F)F)c(Oc3ccc(Cl)c(Cl)c3)c(=O)[nH]2)n1 [Example 156, 5-(3,4-dichlorophenoxy)-4′,6′-dimethoxy-6-(trifluoromethyl)-2,2′-bipyrimidin-4(3H)-one] | 0.7 nM | 244 nM |
| COc1ccnc(-c2nc(C(F)(F)F)c(Oc3ccc(Cl)c(C(F)(F)F)c3)c(=O)[nH]2)c1 [Example 152, 5-[4-chloro-3-(trifluoromethyl)phenoxy]-2-(4-methoxypyridin-2-yl)-6-(trifluoromethyl)pyrimidin-4(3H)-one] | 8.2 nM | 838 nM |
| CC(C)(C)Oc1ccnc(-c2nc(C(F)(F)F)c(Oc3ccc(Cl)c(C(F)(F)F)c3)c(=O)[nH]2)c1 [Example 160, 2-(4-tert-butoxypyridin-2-yl)-5-[4-chloro-3-(trifluoromethyl)phenoxy]-6-(trifluoromethyl)pyrimidin-4(3H)-one] | 62 nM | 1960 nM |
| CSc1cccnc1-c1nc(C(F)(F)F)c(Oc2ccc(Cl)c(C(F)(F)F)c2)c(=O)[nH]1 [Example 114] | 0.1 nM | 6.1 nM |
| O=c1[nH]c(-c2cccnn2)nc(C(F)(F)F)c1Oc1ccc(Cl)c(C(F)(F)F)c1 [Example 118, 5-[4-chloro-3-(trifluoromethyl)phenoxy]-2-(pyridazin-3-yl)-6-(trifluoromethyl)pyrimidin-4(3H)-one] | 0.4 nM | 73 nM |
| CC(C)(C)Oc1cccc(-c2nc(C(F)(F)F)c(Oc3ccc(Cl)c(C(F)(F)F)c3)c(=O)[nH]2)n1 [Example 151, 2-(6-tert-butoxypyridin-2-yl)-5-[4-chloro-3-(trifluoromethyl)phenoxy]-6-(trifluoromethyl)pyrimidin-4(3H)-one] | 96 nM | 3680 nM |
| Nc1ccc(-c2nc(C(F)(F)F)c(Oc3ccc(Cl)c(Cl)c3)c(=O)[nH]2)nn1 [Example 121, 2-(6-aminopyridazin-3-yl)-5-(3,4-dichlorophenoxy)-6-(trifluoromethyl)pyrimidin-4(3H)-one] | 0.5 nM | 149 nM |
| Nc1ncc(-c2nc(C(F)(F)F)c(Oc3ccc(Cl)c(Cl)c3)c(=O)[nH]2)cn1 [Example 154, 2′-amino-5-(3,4-dichlorophenoxy)-6-(trifluoromethyl)-2,5′-bipyrimidin-4(3H)-one] | 37 nM | 1930 nM |
| Nc1ncc(-c2nc(C(F)(F)F)c(Oc3ccc(Cl)c(C(F)(F)F)c3)c(=O)[nH]2)cn1 [Example 155, 2′-amino-5-[4-chloro-3-(trifluoromethyl)phenoxy]-6-(trifluoromethyl)-2,5′-bipyrimidin-4(3H)-one] | 23 nM | 1080 nM |
| COc1nccnc1-c1nc(C(F)(F)F)c(Oc2ccc(Cl)c(C(F)(F)F)c2)c(=O)[nH]1 [Example 116] | 0.3 nM | 37 nM |
| O=c1[nH]c(-c2ccnnc2)nc(C(F)(F)F)c1Oc1ccc(Cl)c(C(F)(F)F)c1 [Example 129, 5-[4-chloro-3-(trifluoromethyl)phenoxy]-2-(pyridazin-4-yl)-6-(trifluoromethyl)pyrimidin-4(3H)-one] | 222 nM | 2710 nM |
| O=c1[nH]c(-c2cccnc2)nc(C(F)(F)F)c1Cc1ccc(Cl)c(C(F)(F)F)c1 [Example 165, 5-[4-chloro-3-(trifluoromethyl)benzyl]-2-(pyridin-3-yl)-6-(trifluoromethyl)pyrimidin-4(3H)-one] | 14 nM | 3370 nM |
| COc1nccnc1-c1nc(C(F)(F)F)c(Oc2ccc(Cl)c(Cl)c2)c(=O)[nH]1 [Example 117, 5-(3,4-dichlorophenoxy)-2-(3-methoxypyrazin-2-yl)-6-(trifluoromethyl)pyrimidin-4(3H)-one] | 0.3 nM | 36 nM |
| O=c1[nH]c(-c2ccncc2Cl)nc(C(F)(F)F)c1Oc1ccc(Cl)c(Cl)c1 [Example 124, 2-(3-chloropyridin-4-yl)-5-(3,4-dichlorophenoxy)-6-(trifluoromethyl)pyrimidin-4(3H)-one] | 2.9 nM | 320 nM |
| Cc1ccc(-c2nc(C(F)(F)F)c(Oc3ccc(Cl)c(Cl)c3)c(=O)[nH]2)nc1C [Example 157, 5-(3,4-dichlorophenoxy)-2-(5,6-dimethylpyridin-2-yl)-6-(trifluoromethyl)pyrimidin-4(3H)-one] | 14 nM | 1510 nM |
